Tests used:
CA1 cells = assay: Plateau potentials evoked by glutamate photolysis on CA1 cell dendrites in hippocampal slice cultures; format: cell-based; details: compared with control CA1 cells
From the text: It may be expected based on previous studies in the laboratory of the present inventor that partial denervation and removal of the majority of the excitatory input to area CA1 would result in a quiescent population of cells. In fact, local stimulation within area CA1 triggers prolonged, abnormally oscillatory synaptic responses in lesioned cultures that are never seen in normally innervated tissue (FIG. 1, top row), but only with a delay of 7 or more days after the injury (Wei et al., 2003). The reason is […] that denervation increases glutamate receptor expression in CA1 cells, akin to the well known phenomenon of denervation suprasensitivity in muscle. To confirm, the laboratory of the present inventor used photolysis of caged glutamate to compare the responses of CA1 cell dendrites in lesioned and unlesioned cultures.
In control cultures, distal, terminal dendritic branches of CA1 cells respond to weak photolysis of glutamate with passive subthreshold depolarizations. Stronger glutamate applications, however, trigger all-or-none Ca^2+-sensitive responses that are called plateau potentials (Wei et al., 2001). […] Plateau potentials, in contrast, are accompanied by Ca^2+ signals that can be seen throughout the stimulated dendrite within milliseconds, indicative of their rapid electrical propagation along the entire stimulated branch.

[1] = test system: animals with lesioned spinothalamic tracts; assay: Paw withdrawal latency test for hyperalgesia after spinothalamic tract transection; format: in vivo, rat; details: 500 mg/kg intraperitoneally; FIG. 4A
Experimental: (§1) Spinothalamic tract transection. The spinothalamic tract is transected bilaterally at the level of the thoracic/lumbar border, thereby severing the ascending pathways conveying somatosensory, thermal and nociceptive information to the cortex via the thalamus. Male, adult Sprague-Dawley rats (ca. 200 gm) are anesthetized with pentobarbital and a T8 laminectomy is performed. The dura is opened with the tip of a 21 g. syringe needle to expose the spinal cord. The spinal cord is then lifted and rotated using a fine, sterile glass rod, and the ventral lateral pain pathways are severed electrolytically using a 1 MΩ sharpened tungsten needle and a 45 V pulse for 1 min. The lesion is packed with a small piece of sterile gelfoam. The overlying muscles and skin are closed and sutured, and the animal is allowed to recover on a 37° C. heating pad. Sham-operated controls undergo a laminectomy without dural penetration or spinal injury. This spinal transection procedure is a useful model of central pain syndrome where increased pain sensitivity and allodynia were observed. At various times after the lesion, standard behavioral tests were completed to assay the threshold for a stimulus to be perceived as painful, and allodynia was performed on awake, behaving animals. […] The paw withdrawal latency is automatically recorded when the rat withdraws its paw from the stimulus. […]

[2] = test system: animals with lesioned spinothalamic tracts; assay: von Frey filament test for allodynia after spinothalamic tract transection; format: in vivo, rat; details: 500 mg/kg intraperitoneally; FIG. 4B
Experimental: as §1

Row | SMILES | prolongation of plateau potentials in denervated CA1 cells (CA1 cells) | hyperalgesia (paw withdrawal latency) [1] | allodynia (von Frey's test) [2]
1 | O=C(O)CN(CC(=O)O)c1ccccc1OCCOc1ccccc1N(CC(=O)O)CC(=O)O [BAPTA] | occluded | – | –
2 | CC[N+](CC)(CC)CC [TEA] | occluded | – | –
3 | CCC1(C)CC(=O)NC1=O (stereo not shown) [ethosuximide, 2-methyl-2-ethyl succinimide] | – | reduced transiently | reduced transiently

From patent US20090143450A1, “METHOD FOR TREATING CENTRAL PAIN SYNDROM OR FOR INDUCING CENTRALLY GENERATED PAIN IN AN ANIMAL MODEL” (UNIVERSITY OF MARYLAND, BALTIMORE, priority 2005, published 2009)
